Measured values taken from patent publication US4399137A, “6-Imidazol-1-yl-3-hydrazino-pyridazines, their preparation and antihypertensive use” (BASF Aktiengesellschaft, priority 1979, dated 1983).
Like-named read-outs stand apart in the source and are kept apart here.

Experiments:
[1] = tested on: narcotized rats; test: Hypotensive action (blood pressure lowering) on narcotized rats, intravenous administration; format: in vivo, rat (Sprague Dawley); details: for ED20: Rattus norvegicus, dose producing a 20% lowering of blood pressure, read-out: Hypotensive action ED 20%; for ED20 / Hypotensive action R.E. (relative effectiveness) / factor by which blood pressure-lowering doses are lower than the dihydralazine doses: narcotized rats; for ED20 / Hypotensive action R.E. (relative effectiveness): intravenous; for Hypotensive action R.E. (relative effectiveness): dihydralazine = 1.00; for blood pressure-lowering properties (in words): general statement, no specific model named; for factor by which blood pressure-lowering doses are lower than the dihydralazine doses: relative to dihydralazine
Description: The blood pressure was measured in the […]. The substance was administered into the jugular vein (using 1 ml/kg of an aqueous solution). The ED 20% was determined, as the dose producing a 20% lowering of blood pressure, from the linear regression between the logarithm of the dose (mg/kg) and the relative lowering of the blood pressure (Δ%).

[2] = Acute toxicity (LD 50), intraperitoneal administration; format: in vivo; details: mouse, in vivo; for LD50 at 168 h: ip, mice, intraperitoneal, 50% of the animals died within 7 days
Description: (§1) To determine the acute toxicity (LD 50), the substances were administered intraperitoneally to groups of 10 female NMRI mice (weighing 20-25 g each).
(§2) The LD 50 was computed (by Probit analysis) as the dose after which 50% of the animals died within 7 days.

[3] = tested on: mice; test: as above; format: in vivo; details: mice, intraperitoneal; dihydralazine = 1.00
Description: as §1, §2

[4] = tested on: spontaneously hypertonic rats; test: Anti-hypertensive action on spontaneously hypertonic rats (SHR), oral administration; format: in vivo, rat (Okamoto; details: for ED20: Rattus norvegicus, dose which lowers systolic pressure by 20%, 2 hours after administration, read-out: Anti-hypertensive action ED 20%; for ED20 / Anti-hypertensive action R.E. (relative effectiveness): SHR, oral; for Anti-hypertensive action R.E. (relative effectiveness): dihydralazine = 1.00; for times as effective as dihydralazine: wake spontaneously hypertonic rats
Description: The anti-hypertensive action was determined on spontaneously hypertonic rats (Okamoto). The substances were administered orally to groups of from 4 to 8 male animals. Before, and 2 hours after, administration, the systolic blood pressure was measured on the tail of the rat by means of a piezoelectric crystal sensor. The ED 20 was determined, as the dose which lowers the systolic pressure by 20%, from the linear regression between the logarithm of the dose (mg/kg) and the relative lowering of blood pressure (Δ%), with due account taken of the values found with placebo-treated control animals.

[5] = ratio LD 50 / anti-hypertensive dose, read-out: toxic doses (LD 50) times as great as the anti-hypertensive doses
[6] = LD 50 (mice, i.p.) relative to anti-hypertensive ED 20% (SHR, oral), read-out: Therapeutic range Q

SMILES | ED20 [1] | Hypotensive action R.E. (relative effectiveness) [1] | LD50 at 168 h [2] | selectivity ratio [2, 5] | selectivity ratio [2, 6] | Toxicity R.E. [3] | ED20 [4] | Anti-hypertensive action R.E. (relative effectiveness) [4] | blood pressure-lowering properties (in words) [1] | factor by which blood pressure-lowering doses are lower than the dihydralazine doses [1] | times as effective as dihydralazine [4]
NNc1nnc(NN)c2ccccc12 [Dihydralazine, dihydralazine, reference compound] | 0.0854 mg/kg | 1.00 | 206 mg/kg | 30 | 30.1 | 1.00 | 6.85 mg/kg | 1.00 | – | – | –
Cc1nccn1-c1ccc(NN)nn1 [Example 1 a, 3-Hydrazino-6-(2-methyl-imidazol-1-yl)-pyridazine] | 0.031 mg/kg | 2.75 | 193 mg/kg | – | 137 | 1.06 | 1.41 mg/kg | 4.86 | Particularly active | 2.8 | 4.9
CC(C)=NNc1ccc(-n2ccnc2C)nn1 [Example 2 a, 3-(2-Isopropylidene-hydrazino)-6-(2-methyl-imidazol-1-yl)-pyridazine] | 0.0464 mg/kg | 1.84 | 98.6 mg/kg | 40 | 40.1 | 2.09 | 2.46 mg/kg | 2.78 | Particularly active | – | –
CCc1nccn1-c1ccc(NN=C(C)C)nn1 [Example 2 b, 3-(2-Isopropylidene-hydrazino)-6-(2-ethyl-imidazol-1-yl)-pyridazine] | 0.0464 mg/kg | 1.84 | 124 mg/kg | – | 50.1 | 1.66 | 2.48 mg/kg | 2.76 | Particularly active | – | –
CCc1nccn1-c1ccc(NN)nn1 [Example 1 c, 3-Hydrazino-6-(2-ethyl-imidazol-1-yl)-pyridazine] | 0.0638 mg/kg | 1.34 | 156 mg/kg | – | 53.6 | 1.32 | 2.91 mg/kg | 2.35 | Particularly active | 1.3 | 2.4
